This test has as its target T1, TLR7 (Homo sapiens, UniProt Q9NYK1).
T1 construct: Fresh blood was collected from normal human donors; endogenous in cells; host or cells: human PBMCs from fresh donor blood
T1 sequence (Q9NYK1 27-1049): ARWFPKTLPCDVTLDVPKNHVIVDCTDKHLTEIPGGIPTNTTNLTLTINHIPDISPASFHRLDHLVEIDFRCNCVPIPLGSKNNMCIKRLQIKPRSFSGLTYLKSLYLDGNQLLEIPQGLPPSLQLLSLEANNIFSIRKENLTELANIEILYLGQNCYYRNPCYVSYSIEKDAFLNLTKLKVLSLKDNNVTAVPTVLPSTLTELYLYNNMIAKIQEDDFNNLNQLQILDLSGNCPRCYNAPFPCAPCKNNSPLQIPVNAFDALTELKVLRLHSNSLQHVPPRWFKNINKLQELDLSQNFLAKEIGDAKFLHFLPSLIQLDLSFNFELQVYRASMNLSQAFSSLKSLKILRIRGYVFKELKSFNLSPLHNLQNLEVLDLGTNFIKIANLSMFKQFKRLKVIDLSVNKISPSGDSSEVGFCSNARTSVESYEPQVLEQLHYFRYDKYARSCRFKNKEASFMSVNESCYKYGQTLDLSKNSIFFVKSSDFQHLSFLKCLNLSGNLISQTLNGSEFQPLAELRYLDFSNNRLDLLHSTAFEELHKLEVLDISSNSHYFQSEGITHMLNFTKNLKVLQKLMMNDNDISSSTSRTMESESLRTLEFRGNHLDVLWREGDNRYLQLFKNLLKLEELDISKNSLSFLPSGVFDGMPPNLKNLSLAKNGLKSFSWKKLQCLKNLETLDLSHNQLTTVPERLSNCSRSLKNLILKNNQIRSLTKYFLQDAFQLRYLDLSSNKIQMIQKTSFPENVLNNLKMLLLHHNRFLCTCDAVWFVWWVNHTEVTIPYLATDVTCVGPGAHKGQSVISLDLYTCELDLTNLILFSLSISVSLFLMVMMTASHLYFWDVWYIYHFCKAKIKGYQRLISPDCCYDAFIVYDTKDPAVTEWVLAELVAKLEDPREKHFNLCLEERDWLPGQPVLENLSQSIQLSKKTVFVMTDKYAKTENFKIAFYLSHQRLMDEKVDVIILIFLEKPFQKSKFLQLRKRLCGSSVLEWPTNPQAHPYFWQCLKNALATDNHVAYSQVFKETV
As to the kind of experiment: huPBMC TLR7 Antagonist IFNα Assay. It counts as cell-based. Particulars: human PBMCs stimulated with ssRNA40 10 μg/mL (DOTAP), 14-16 hrs; IFNα2b AlphaLISA read-out. The method, boiled down: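 Human PBMCs from fresh donor blood (150,000 cells/well) stimulated 14–16 h at 37 °C with DOTAP-complexed ssRNA40 (final 1 μg/ml for TLR8, 10 μg/mL for TLR7) or ODN2216 (final 0.3 μM, TLR9), 0.25% DMSO, ten-point 1/3 compound dilutions. Supernatant IL-6 read by HTRF (TLR8); IFNα by IFNα2b AlphaLISA (TLR7/TLR9).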
On the technique in general: Alpha assays give light when donor and acceptor beads are brought close together.
With `CNCC(=O)NC12CCC(Cn3nc(C)c4c3CCN(c3cc(C)nc5c3cnn5C)C4)(CC1)CC2` [compound 121, N-(4-((5-(1,6-dimethyl-1H-pyrazolo[3,4-b]pyridin-4-yl)-3-methyl-4,5,6,7-tetrahydro-1H-pyrazolo[4,3-c]pyridin-1-yl)methyl)bicyclo[2.2.2]octan-1-yl)-2-(methylamino)acetamide], the 50% inhibitory concentration (IC50) (usually the point on the concentration scale where inhibition reaches its midpoint) was determined as 5 nM.

As for `Cc1cc(N2CCc3c(c(C)nn3CC34CCC(NC(=O)OC(C)(C)C)(CC3)C4)C2)c2cnn(C)c2n1` [compound 148, tert-butyl (4-((5-(1,6-dimethyl-1H-pyrazolo[3,4-b]pyridin-4-yl)-3-methyl-4,5,6,7-tetrahydro-1H-pyrazolo[4,3-c]pyridin-1-yl)methyl)bicyclo[2.2.1]heptan-1-yl)carbamate], the IC50 is 54 nM.

Take `Cc1nc(N2CCc3c(c(C)nn3CC34CCC(N5CCCCC5)(CC3)CC4)C2)c2cn[nH]c2n1` [compound 29, 6-methyl-4-(3-methyl-1-((4-(piperidin-1-yl)bicyclo[2.2.2]octan-1-yl)methyl)-6,7-dihydro-1H-pyrazolo[4,3-c]pyridin-5(4H)-yl)-1H-pyrazolo[3,4-d]pyrimidine]: the IC50 stood at 73 nM.

Take `Cc1nc(N2CCc3c(c(C)nn3CC34CCC(NC(=O)[C@@H]5CNCCO5)(CC3)CC4)C2)c2c(n1)c(C)nn2C` [compound 34, (S)-N-(4-((3-methyl-5-(1,3,5-trimethyl-1H-pyrazolo[4,3-d]pyrimidin-7-yl)-4,5,6,7-tetrahydro-1H-pyrazolo[4,3-c]pyridin-1-yl)methyl)bicyclo[2.2.2]octan-1-yl)morpholine-2-carboxamide]: the IC50 turned out to be 13 nM.

Regarding `Cc1cc(N2CCc3c(c(C)nn3CC34CCC(N5CCN(C)CC5=O)(CC3)CC4)C2)c2cnn(C)c2n1` [Compound No. 108, 1-(4-((5-(1,6-dimethyl-1H-pyrazolo[3,4-b]pyridin-4-yl)-3-methyl-4,5,6,7-tetrahydro-1H-pyrazolo[4,3-c]pyridin-1-yl)methyl)bicyclo[2.2.2]octan-1-yl)-4-methylpiperazin-2-one], the IC50 turned out to be 21 nM.

In the case of `Cc1cc(N2CCc3c(c(C)nn3CC34CCC(NC(=O)[C@H]5COCCN5)(CC3)CC4)C2)c2cnn(C)c2n1` [Compound No. 9, (R)—N-(4-((5-(1,6-dimethyl-1H-pyrazolo[3,4-b]pyridin-4-yl)-3-methyl-4,5,6,7-tetrahydro-1H-pyrazolo[4,3-c]pyridin-1-yl)methyl)bicyclo[2.2.2]octan-1-yl)morpholine-3-carboxamide], the IC50 was 15 nM.

Turning to `Cc1cc(N2CCc3c(c(C)nn3CC34CCC(N(C)C)(CC3)CC4)C2)c2cnn(C)c2n1` [Compound No. 43, 4-((5-(1,6-dimethyl-1H-pyrazolo[3,4-b]pyridin-4-yl)-3-methyl-4,5,6,7-tetrahydro-1H-pyrazolo[4,3-c]pyridin-1-yl)methyl)-N,N-dimethylbicyclo[2.2.2]octan-1-amine], the IC50 worked out at 16 nM.

As to `CCNCC(=O)NC12CCC(Cn3nc(C)c4c3CCN(c3nc(C)nc5[nH]ncc35)C4)(CC1)CC2` [compound 20, 2-(ethylamino)-N-(4-((3-methyl-5-(6-methyl-1H-pyrazolo[3,4-d]pyrimidin-4-yl)-4,5,6,7-tetrahydro-1H-pyrazolo[4,3-c]pyridin-1-yl)methyl)bicyclo[2.2.2]octan-1-yl)acetamide], the concentration for half-maximal inhibition (IC50) turned out to be 25 nM.

The record behind these values is US20240376099A1, “COMPOUNDS AND COMPOSITIONS AS INHIBITORS OF ENDOSOMAL TOLL-LIKE RECEPTORS” (Novartis AG, priority 2016, published 2024).
